Reference: PubChem BioAssay AID1204 (EPA DSSTox, 2008)
Inconclusive results are not listed. Active and inactive are the calls of the source.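 How the source made its calls: active means relative estrogen receptor binding affinity above 1E-5, where estradiol scores 100; inconclusive means weak binder, under half inhibition at top dose, or affinity below 1E-5; inactive means no binding seen, affinity zero.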

Tested on: estrogen receptor (rat uterine cytosol)
Test: DSSTox (NCTRER) National Center for Toxicological Research Estrogen Receptor Binding Database;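 on relative binding affinity: ratio of estradiol IC50 over compound IC50 times 100 so estradiol equals 100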
Details: rat uterine cytosol ER competitive binding, RBA; for relative binding affinity: active compounds read high
Description: Researchers within FDA's National Center for Toxicological Research (NCTR) generated a database of experimental estrogen receptor binding results for the express purpose of developing improved QSAR models to predict ER binding affinities.The NCTR ER database is a structurally diverse set of natural, synthetic, and environmental estrogens covering most known estrogenic classes and spanning a wide range of biological activity. It represents the largest published ER binding database of same-assay results generated in a single laboratory. […] Information on the percent purity and purchasing source for all chemicals are not included in the DSSTox SDF, but can be obtained from the original NCTR ER Source database and Main Citations listed below. The main citation (Fang et al., 2001) surveys the NCTR ER database from a chemical class based, structure-activity relationship (SAR) perspective. Qualitative SAR characteristics of the NCTR ER database are discussed and a set of general hierarchical rules for identifying potential estrogens are presented. The DSSTox NCTRER SDF augments the original NCTR ER database with chemical class and SAR information abstracted from Fang et al. (2001). The DSSTox SDF file supplements the measured ER relative binding affinity for each chemical (ER_RBA) with chemical class assignment to one of 6 major estrogenic classes further divided into 20 subclasses (ChemClass_ERB), along with a qualitative activity measure, ActivityCategory_ER_RBA. A brief narrative SAR rationale pertaining to ER RBA patterns observed by Fang et al. (2001) for each of the 20 subclasses within the database are provided in the field, ActivityCategory_Rationale_ChemClass_ERB. The original NCTR ER database, from which the expanded DSSTox NCTRER was formed, is contained within a larger Endocrine Disruptor Knowledge Base (EDKB) accessible from the FDA Source Website. That website provides online access to a relational database comprised of in vitro and in vivo experimental data for about 2000 natural and synthetic compounds, much of this extracted from the literature and representing testing in many laboratories. Data are included for biological assays that measure estrogenic and androgenic activity. Estrogenic endpoints include in vitro assays for estrogen receptor competitive binding affinity, cell proliferation, and reporter-gene assays, and in vivo assays for uterotrophic activity (i.e., uterine weight gain and vaginal cornification). The database also contains a bibliography of over 1200 citations, many of which include abstracts.
Estrogen receptor relative binding affinity is determined using a competitive receptor binding assay as described in NCTRER Ref (Blair et al., 2000). Briefly, a chemical competes with radiolabeled E2 (i.e., estradiol) for binding to the ER in rat uterine cytosol and the concentration of chemical that causes 50% inhibition of E2 binding (i.e., IC50) is measured. The ER_RBA is calculated by dividing the IC50 of E2 (9X10-10M) by the IC50 of the competitor and multiplying by 100 (E2 RBA = 100). The validated assay tested 1nM E2 with concentrations of competitor ranging from 1nM to 1mM. The larger the ER_RBA values, the greater the binding affinity; ER_RBA > 100 means compound has greater binding affinity than natural ER ligand, E2. […] Activity Score is mapping of LOG_ER_RBA values (ER-RBA>1E-5), spanning activity range [MIN, MAX] onto Integer 20-100 Activity range, where 100 is highest potency and 20 is lowest active potency. If Activity Outcome is "active": Activity Score = 80 * INTEGER[(LOG_ER_RBA - MIN)/(MAX […] MIN)]. If Activity Outcome is "inconclusive" (i.e., slight binder): Activity Score = 5.

[1] = ChemClass_ERB: Phytoestrogens Isoflavones
[2] = ChemClass_ERB: Steroids With aromatic A ring
[3] = ChemClass_ERB: Biphenyls nonchlorinated
[4] = ChemClass_ERB: DES Hexestrol derivatives
[5] = ChemClass_ERB: Phytoestrogens Chalconoids
[6] = ChemClass_ERB: Steroids Without aromatic A ring

## O=c1c(-c2ccc(O)cc2)coc2cc(O)c(O)cc12
[1]
  outcome: inactive

## CCCCCCCCCCCCc1ccc(O)cc1
ChemClass_ERB: Phenols Alkyl
  relative binding affinity: 0.0186%

## C[C@]12CC[C@@H]3c4ccccc4CC[C@H]3[C@@H]1CCC2=O
[2]
  relative binding affinity: 0.0063%

## Oc1ccccc1-c1ccccc1
[3]
  outcome: inactive

## Oc1c(Cl)cc(-c2cc(Cl)c(O)c(Cl)c2)cc1Cl
ChemClass_ERB: Biphenyls PCBs
  relative binding affinity: 0.00056%

## Cn1c(=O)c2c(ncn2C)n(C)c1=O
ChemClass_ERB: Misc
  outcome: inactive

## CCCCc1ccccc1
ChemClass_ERB: Misc
  outcome: inactive

## CC(CCC(=O)O)(c1ccc(O)cc1)c1ccc(O)cc1
ChemClass_ERB: Diphenylmethanes Diphenolalkanes
  relative binding affinity: 0.00074%

## CCC(c1ccc(C)cc1)C(CC)c1ccc(O)cc1 (stereo not given)
[4]
  relative binding affinity: 3.98%

## Nc1nc2ncc(CNc3ccc(C(=O)N[C@@H](CCC(=O)O)C(=O)O)cc3)nc2c(=O)[nH]1
ChemClass_ERB: Misc
  outcome: inactive

## O=C(CCc1ccc(O)cc1)c1c(O)cc(O)cc1O
[5]
  relative binding affinity: 0.069%

## C[C@]12CC[C@@H]3c4ccc(O)cc4CC[C@H]3[C@@H]1CC[C@H]2O
[2]
  relative binding affinity: 3.09%

## CCCCOC(=O)c1ccccc1C(=O)OCCCC
ChemClass_ERB: Misc
  outcome: inactive

## CC(C)COC(=O)c1ccccc1C(=O)OCC(C)C
ChemClass_ERB: Misc
  outcome: inactive

## Oc1ccc(-c2ccccc2)c(Cl)c1
ChemClass_ERB: Biphenyls PCBs
  relative binding affinity: 0.00169%

## O=C(C(=O)c1ccc(O)cc1O)c1ccc(O)cc1O
[4]
  relative binding affinity: 0.209%

## ClC(Cl)=C(c1ccc(Cl)cc1)c1ccc(Cl)cc1
ChemClass_ERB: Diphenylmethanes DDTs
  outcome: inactive

## O=C(/C=C/c1ccc(O)cc1)c1ccccc1
[5]
  relative binding affinity: 0.00281%

## C[C@]12CC[C@H](O)C[C@@H]1CC[C@@H]1[C@@H]2CC[C@]2(C)[C@@H](O)CC[C@@H]12
[6]
  relative binding affinity: 0.12%

## O=C(O)COc1ccc(Cl)cc1Cl
ChemClass_ERB: Misc
  outcome: inactive

## COc1cc(C=O)ccc1O
ChemClass_ERB: Phenols Alkyloxy
  outcome: inactive

## CCc1cccc(CC)c1N(COC)C(=O)CCl
ChemClass_ERB: Misc
  outcome: inactive

## CCCCOC(=O)c1ccc(N)cc1
ChemClass_ERB: Misc
  outcome: inactive

## Oc1ccc(-c2cc(Cl)c(Cl)c(Cl)c2Cl)cc1
ChemClass_ERB: Biphenyls PCBs
  relative binding affinity: 0.23%

## CCOC(=O)c1ccc(O)cc1
ChemClass_ERB: Phenols Parabens
  relative binding affinity: 0.0006%

## C[C@H]1CCC[C@H](O)CCCCCc2cc(O)cc(O)c2C(=O)O1
ChemClass_ERB: Phytoestrogens Mycoestrogens
  relative binding affinity: 30.2%

## C[C@]12CC[C@H]3[C@@H](CCC4=CC(=O)CC[C@@]43C)[C@@H]1CC[C@@H]2O
[6]
  outcome: inactive

## OCCCCCCCCO
ChemClass_ERB: Misc
  outcome: inactive

## O=C(c1ccc(O)cc1)c1ccc(O)cc1
ChemClass_ERB: Diphenylmethanes Benzophenone
  relative binding affinity: 0.0035%

## O=c1c(-c2ccc(O)c(O)c2)coc2cc(O)ccc12
[1]
  relative binding affinity: 0.00446%

## CC[C@@H](c1ccc2cc(O)ccc2c1)C(C)(C)C(=O)O
ChemClass_ERB: Misc
  relative binding affinity: 0.955%

## Clc1ccc(-c2ccc(Cl)cc2Cl)c(Cl)c1
ChemClass_ERB: Biphenyls PCBs
  outcome: inactive

## O=c1c(O)c(-c2ccc(O)cc2O)oc2cc(O)cc(O)c12
ChemClass_ERB: Phytoestrogens Flavones
  relative binding affinity: 0.00081%

## Oc1ccc(-c2ccccc2)cc1
[3]
  relative binding affinity: 0.00091%

## COc1ccc([C@@H]2CC(=O)c3c(O)cc(O)cc3O2)cc1O
ChemClass_ERB: Phytoestrogens Flavanones
  outcome: inactive
